Experimental data from US8937063B2 (Trustees of Tufts College, priority 2010, dated 2015).

What was measured:
high fat-fed hamsters [1] = assay: Liver function tests (AST, ALT) in plasma of chronically dosed hamsters; type: in vivo, hamster; conditions: vs vehicle
Description: (§1) In order to investigate this, we examined the common liver functional enzymes AST and ALT in the plasma of hamsters from experiment described above in Example 3. These animals were dosed for 18 consecutive days, while being on a HF/HS diet for a total of nearly 5 weeks. We also examined the glucose levels in the plasma of these animals. For pharmacokinetic studies, we utilized wild type mice for both single and repeated administration study. Finally, pharmacokinetic studies were corroborated by data from single and repeated administration to monkeys.
This led to an investigation of liver function tests (AST, ALT) from plasma of hamsters dosed for 18 days with ARI-001. AST and ALT were measured using commercially available kits (Bio-Quant Diagnostic Kits, San Diego, Calif.). As expected, AST and ALT values from untreated hamsters (vehicle group) were very high, as the high fat diet leads to hepatomegaly and fatty liver. This disease state is reflected in the elevated AST and ALT levels.

high fat-fed hamsters [2] = assay: Plasma glucose in chronically dosed hamsters; type: in vivo, hamster; conditions: ARI-001 1120 and 2240 mg/kg oral 18 days, vs vehicle
Description: as §1, with “These” for “In order to investigate this, we examined the common liver functional enzymes AST and ALT in the plasma of hamsters from experiment described above in Example 3. These”

[3] = test system: plasma lipids in animal models; assay: Summary of lipid efficacy studies in animal models; type: in vivo
Source text: A number of pharmacokinetic, safety, and efficacy studies for ARI-001 have been completed in a variety of animals, including mice, rats, Golden Syrian hamsters, dogs, and monkeys. Overall, results from these studies have established the following.

healthy adult volunteers = assay: Human clinical trial, single escalating oral doses: flushing; type: in vivo; conditions: single oral doses 500 to 6000 mg; preliminary
Description: A randomized, double-blind, placebo-controlled study is performed with sequential escalating doses by cohort with observations for 30 hours post dosing and return visit on 8th day. Study subjects are healthy male and female adult volunteers, age 18-60 years, with LDL-C>130 mg/dL and weight <85 kg. Subjects are randomly assigned to receive study drug or placebo.
Five periods of single dose escalation, with 8 subjects per cohort (6 drug: 2 placebo) involve a total 40 subjects. Appropriately blinded matching placebos are provided. Cohort 1 receives 500 mg of ARI-001 formulated as a single oral tablet, plus eleven placebo tablets; Cohort 2, 1000 mg taken as two 500 mg tablets of ARI-001, plus ten placebo tablets; Cohort 3, 2000 mg taken as four 500 mg tablets of ARI-001, plus eight placebo tablets; Cohort 4, 4000 mg taken as eight 500 mg tablets of ARI-001, plus four placebo tablets; Corhort 5, 6000 mg taken as twelve 500 mg tablets of ARI-001. Placebo-only subjects take twelve placebo tablets. Each tablet is a compressed, film-coated tablet suitable for oral administration. […]

O=C(O)c1ccc(CCN2CCOCC2)nc1 [ARI-001]
AST (high fat-fed hamsters [1]; 2240 mg/kg oral 18 days): drastically reduced
ALT (high fat-fed hamsters [1]; 1120 and 2240 mg/kg oral 18 days, dose-dependent): similarly reduced
plasma glucose (high fat-fed hamsters [2]): neither dose of ARI-001 produced any significant change in glucose levels
plasma lipid changes, once daily vs same total dose twice daily ([3]; in vivo): greater than or equal to the lipid altering effects observed with the same total dose of ARI-001 given twice daily
lipid altering effects of once-daily dose vs niacin ([3]; niacin at nearly 2-fold higher dose once a day): more pronounced
signs of flushing (healthy adult volunteers): no patients exhibited any signs of flushing
